Tests used:
[1] = biological target: Leucine-rich repeat serine/threonine-protein kinase 2 (Homo sapiens, UniProt Q5S007)
Description: Inhibition of GST-tagged human recombinant wild type LRRK2 using fluorescein- ERM as substrate after 1 hr by TR-FRET assay

[2] = in vivo; settings: rat, iv, 2 mg/kg
Description: Half life in rat at 2 mg/kg, iv

[3] = in vivo; settings: rat, po, 10 mg/kg
[4] = in vivo; settings: rat, po, 10 mg/kg; remark: listed apart in the source
[5] = in vivo; settings: rat, po, 10 mg/kg; remark: listed apart in the source
[6] = in vivo; settings: rat, plasma, ip, 5 mg/kg
Description: Plasma concentration in rat at 5 mg/kg, ip after 1 hr

[7] = in vivo; settings: rat, cerebrospinal fluid, ip, 5 mg/kg
Description: Drug uptake in CSF in rat at 5 mg/kg, ip after 1 hr

[8] = in vivo; settings: rat, plasma, iv, 2 mg/kg
[9] = in vitro; settings: rat, in vivo
Description: Intrinsic clearance in rat

[10] = Protein binding in rat plasma; assay type: ADME, cell-free; settings: read-out: PPB (converted)

Chain of Leucine-rich repeat serine/threonine-protein kinase 2 (Q5S007 whole entry): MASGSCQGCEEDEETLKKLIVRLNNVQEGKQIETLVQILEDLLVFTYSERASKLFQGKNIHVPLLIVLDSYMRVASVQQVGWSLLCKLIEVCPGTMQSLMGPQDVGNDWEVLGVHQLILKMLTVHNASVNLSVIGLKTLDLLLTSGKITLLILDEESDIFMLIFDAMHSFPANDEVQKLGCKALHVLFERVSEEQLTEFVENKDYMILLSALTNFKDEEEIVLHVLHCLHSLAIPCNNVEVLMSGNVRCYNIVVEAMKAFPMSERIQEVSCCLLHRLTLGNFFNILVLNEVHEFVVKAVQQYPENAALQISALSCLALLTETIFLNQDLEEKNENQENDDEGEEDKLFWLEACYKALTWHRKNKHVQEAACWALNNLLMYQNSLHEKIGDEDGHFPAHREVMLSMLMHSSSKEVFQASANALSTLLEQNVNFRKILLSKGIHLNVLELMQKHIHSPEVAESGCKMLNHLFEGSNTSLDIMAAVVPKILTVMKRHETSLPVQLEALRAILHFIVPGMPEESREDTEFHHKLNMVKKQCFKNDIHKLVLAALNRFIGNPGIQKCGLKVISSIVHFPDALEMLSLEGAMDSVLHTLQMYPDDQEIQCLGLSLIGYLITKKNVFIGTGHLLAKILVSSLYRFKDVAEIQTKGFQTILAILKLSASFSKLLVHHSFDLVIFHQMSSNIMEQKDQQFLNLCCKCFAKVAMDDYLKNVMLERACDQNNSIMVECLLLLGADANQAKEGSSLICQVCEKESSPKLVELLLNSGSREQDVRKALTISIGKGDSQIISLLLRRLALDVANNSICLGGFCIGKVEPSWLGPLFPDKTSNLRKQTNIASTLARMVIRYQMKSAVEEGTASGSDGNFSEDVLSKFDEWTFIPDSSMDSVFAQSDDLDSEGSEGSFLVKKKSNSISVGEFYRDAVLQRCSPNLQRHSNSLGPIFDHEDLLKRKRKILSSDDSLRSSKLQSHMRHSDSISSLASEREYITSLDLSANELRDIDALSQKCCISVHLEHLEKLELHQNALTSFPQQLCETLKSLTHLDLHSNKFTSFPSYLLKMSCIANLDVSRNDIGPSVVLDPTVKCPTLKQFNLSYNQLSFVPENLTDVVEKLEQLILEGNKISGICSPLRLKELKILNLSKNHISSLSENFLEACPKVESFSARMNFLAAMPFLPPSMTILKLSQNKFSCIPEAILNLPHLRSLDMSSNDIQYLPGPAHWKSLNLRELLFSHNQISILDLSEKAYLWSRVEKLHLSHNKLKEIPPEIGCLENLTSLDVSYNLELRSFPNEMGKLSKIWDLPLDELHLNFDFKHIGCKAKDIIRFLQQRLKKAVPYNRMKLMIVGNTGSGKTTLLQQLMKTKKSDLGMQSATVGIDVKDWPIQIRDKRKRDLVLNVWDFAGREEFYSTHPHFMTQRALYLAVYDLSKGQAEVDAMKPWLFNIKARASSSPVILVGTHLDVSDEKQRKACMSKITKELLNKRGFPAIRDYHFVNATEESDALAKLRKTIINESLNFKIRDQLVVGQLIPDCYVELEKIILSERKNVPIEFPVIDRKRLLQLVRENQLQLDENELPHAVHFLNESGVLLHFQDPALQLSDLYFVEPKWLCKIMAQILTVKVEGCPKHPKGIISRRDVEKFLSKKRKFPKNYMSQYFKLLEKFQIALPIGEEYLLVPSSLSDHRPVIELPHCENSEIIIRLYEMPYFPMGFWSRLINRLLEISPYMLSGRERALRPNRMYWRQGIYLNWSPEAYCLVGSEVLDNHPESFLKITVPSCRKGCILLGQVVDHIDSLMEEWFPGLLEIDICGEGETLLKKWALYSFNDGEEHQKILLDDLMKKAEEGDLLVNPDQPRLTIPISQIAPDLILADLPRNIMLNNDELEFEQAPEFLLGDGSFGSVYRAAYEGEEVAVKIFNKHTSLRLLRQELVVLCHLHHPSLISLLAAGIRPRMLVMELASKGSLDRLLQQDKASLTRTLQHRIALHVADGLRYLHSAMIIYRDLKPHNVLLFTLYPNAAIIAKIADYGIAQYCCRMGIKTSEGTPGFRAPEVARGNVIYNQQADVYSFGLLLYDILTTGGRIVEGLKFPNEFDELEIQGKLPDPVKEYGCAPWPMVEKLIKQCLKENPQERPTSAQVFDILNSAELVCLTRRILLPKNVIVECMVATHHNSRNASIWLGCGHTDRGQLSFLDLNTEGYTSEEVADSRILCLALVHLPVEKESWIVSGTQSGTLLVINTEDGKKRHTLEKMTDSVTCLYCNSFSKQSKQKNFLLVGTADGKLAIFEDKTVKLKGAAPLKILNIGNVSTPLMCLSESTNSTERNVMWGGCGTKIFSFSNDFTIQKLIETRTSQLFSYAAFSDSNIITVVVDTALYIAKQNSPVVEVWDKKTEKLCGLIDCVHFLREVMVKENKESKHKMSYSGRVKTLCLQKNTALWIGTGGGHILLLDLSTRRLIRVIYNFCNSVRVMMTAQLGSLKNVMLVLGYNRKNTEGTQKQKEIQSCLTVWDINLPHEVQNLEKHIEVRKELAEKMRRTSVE

Structure (SMILES) | Ki [1] | other results
CC1(C)CC(=O)c2c(SCCO)sc(-c3cc[nH]n3)c2C1 | 515 nM | –
O=C1NCCc2c(-c3cc[nH]n3)sc(SC3CC3)c21 | 614 nM | –
O=C1NCCc2c(-c3cc[nH]n3)sc(Sc3ccccc3)c21 | 4460 nM | –
CSc1sc(-c2cc[nH]n2)c2c1C(=O)N(C)CC2 | 5570 nM | –
CSc1sc(-c2cc[nH]n2)c2c1C(=O)NC1(CCCC1)C2 | 411 nM | –
CSc1sc(-c2cc[nH]n2)c2c1C(=O)N(c1ccccc1)CC2 | 4710 nM | –
O=C1NCCc2c(-c3cc[nH]n3)sc(SC3CCCC3)c21 | 459 nM | –
CCCc1sc(-c2cc[nH]n2)c2c1C(=O)CC(C)(C)C2 | 5290 nM | –
O=C1CCCc2c(-c3cc[nH]n3)sc(NC3CCCC3)c21 | > 10000 nM | –
CC1(C)CC(=O)c2c(S(C)(=O)=O)sc(-c3cc[nH]n3)c2C1 | 7130 nM | –
CC1(C)CC(=O)c2c(SCc3ccccc3)sc(-c3cc[nH]n3)c2C1 | > 10000 nM | –
CC1(C)CC(=O)c2c(NC3CCCC3)sc(-c3cc[nH]n3)c2C1 | 2790 nM | –
CSc1sc(-c2cc[nH]n2)c2c1C(=O)NC1(CC1)C2 | > 10000 nM | –
CSc1sc(-c2cc[nH]n2)c2c1C(=O)N[C@H](c1cccnc1)C2 | > 10000 nM | –
CSc1sc(-c2ccn(C)n2)c2c1C(=O)CC(C)(C)C2 | 5580 nM | –
CCSc1sc(-c2cc[nH]n2)c2c1C(=O)NCC2 | 589 nM | –
Cc1nnc(Sc2sc(-c3cc[nH]n3)c3c2C(=O)CC(C)(C)C3)s1 | 993 nM | –
O=C1NCCc2c(-c3cc[nH]n3)sc(SC3CCCCC3)c21 | 919 nM | –
CC1(C)CC(=O)c2c(OC3CCCC3)sc(-c3cc[nH]n3)c2C1 | 475 nM | –
CSc1sc(-c2cc[nH]n2)c2c1C(=O)NC[C@H]2C | 603 nM | –
CCCSc1sc(-c2cc[nH]n2)c2c1C(=O)NCC2 | 572 nM | –
CSc1sc(-c2cc[nH]n2)c2c1C(=O)NCC2 | 3410 nM | half-life [2]: 1.4 h; bioavailability [3]: 70%; Cmax [4]: 4800 nM; AUC [5]: 14 µM·h; concentration at 1 h [6]: 28300 nM; concentration at 1 h [7]: 500 nM; clearance [8]: 47.5 mL/min/kg; CLint scaled [9]: 1300 mL/min/kg
CC1(C)CC(=O)c2c(SCCc3ccccc3)sc(-c3cc[nH]n3)c2C1 | 1890 nM | –
CC(C)Sc1sc(-c2cc[nH]n2)c2c1C(=O)NCC2 | 988 nM | –
CSc1sc(-c2cc[nH]n2)c2c1C(=O)NC(C)C2 (racemic) | 1240 nM | –
CSc1sc(-c2cc[nH]n2)c2c1C(=O)NC(C1CCC1)C2 (racemic) | 1050 nM | –
CSc1sc(-c2cc[nH]n2)c2c1C(=O)NC(C(F)(F)F)C2 (racemic) | 501 nM | –
CSc1sc(-c2cc[nH]n2)c2c1C(=O)NC(Cc1ccccc1)C2 (racemic) | 928 nM | –
CSc1sc(-c2cc[nH]n2)c2c1C(=O)NC(c1cccc(F)c1)C2 (racemic) | 3290 nM | –

Compounds with a lower Ki [1], results first:

Ki [1] | Structure (SMILES) | other results
377 nM | CSc1sc(-c2cc[nH]n2)c2c1C(=O)CC(C)(C)C2 | –
156 nM | CCSc1sc(-c2cc[nH]n2)c2c1C(=O)CC(C)(C)C2 | –
256 nM | CC(C)Sc1sc(-c2cc[nH]n2)c2c1C(=O)CC(C)(C)C2 | –
58 nM | CC[C@H]1CNC(=O)c2c(SCC3CC3)sc(-c3cc[nH]n3)c21 | –
68 nM | CCCSc1sc(-c2cc[nH]n2)c2c1C(=O)NC[C@@H]2CC | –
342 nM | CSc1sc(-c2cc[nH]n2)c2c1C(=O)NC[C@H]2Cc1ccccc1 | –
84 nM | CCCSc1sc(-c2cc[nH]n2)c2c1C(=O)NC[C@@H]2C | half-life [2]: 3.6 h; bioavailability [3]: 98%; Cmax [4]: 16000 nM; AUC [5]: 46.1 µM·h; concentration at 1 h [6]: 24400 nM; concentration at 1 h [7]: 150 nM; clearance [8]: 11.9 mL/min/kg; CLint scaled [9]: 1200 mL/min/kg
233 nM | CSc1sc(-c2cc[nH]n2)c2c1C(=O)NC1(CCC1)C2 | –
319 nM | CSc1sc(-c2cc[nH]n2)c2c1C(=O)NC[C@@H]2C | –
312 nM | CSc1sc(-c2cc[nH]n2)c2c1C(=O)CCC2 | half-life [2]: 6.5 h; bioavailability [3]: 33%; Cmax [4]: 1600 nM; AUC [5]: 3.8 µM·h; concentration at 1 h [6]: 2330 nM; concentration at 1 h [7]: 50 nM; clearance [8]: 56 mL/min/kg; CLint scaled [9]: 6500 mL/min/kg
172 nM | CC1(C)CC(=O)c2c(SCC3CC3)sc(-c3cc[nH]n3)c2C1 | –
295 nM | O=C1CCCc2c(-c3cc[nH]n3)sc(SC3CCCC3)c21 | –
389 nM | CC1(C)CC(=O)c2c(SC3CCCC3)sc(-c3cc[nH]n3)c2C1 | fraction unbound [10]: 0.007; half-life [2]: 1.2 h; bioavailability [3]: 0.2%; Cmax [4]: 120 nM; AUC [5]: 0.01 µM·h; concentration at 1 h [6]: 970 nM; concentration at 1 h [7]: 10 nM; clearance [8]: 95.5 mL/min/kg
83 nM | C[C@H]1CNC(=O)c2c(SCC3CC3)sc(-c3cc[nH]n3)c21 | –
271 nM | CSc1sc(-c2cc[nH]n2)c2c1C(=O)NC(c1ccc(F)cc1)C2 (racemic) | –

Source: ChEMBL document CHEMBL3797078, “Potent, selective and orally bioavailable leucine-rich repeat kinase 2 (LRRK2) inhibitors” (Bioorg Med Chem Lett, 2016)
